In patent US11926628B2 (Gilead Sciences, Inc., priority 2021, dated 2024):

Experiments:
human DGKα = human DGKα (Homo sapiens (Human), UniProt P23743); experiment: DGKα Biochemical Activity Assay (ADP-Glo); conditions: recombinant DGKα 1 nM, 100 μM ATP, 18:1 DAG/POPS/octylglucoside micelles, 1 hour at 25° C.; geometric mean; read-out: HTBS DGKa 1X ATP KM IC50
Description: Alternatively, the enzymatic activity of human DGKα was monitored in a biochemical assay in the presence or absence of compounds and using micelles containing 18:1 Diacylglycerol (DAG), 16:0-18:1 PS (POPS) and Octylglucoside as substrate. DGKα activity led to conversion of DAG and ATP to Phosphatidic Acid (PA) and ADP. Levels of ADP were monitored by bioluminescence using the ADP-Glo Kinase Assay (Promega) and were indicative of DGKα activity.
Ten nanoliters of test compound dissolved in DMSO at various concentrations were dispensed into a 384-well low volume nonbinding service white plates (Corning #3824) using a Labcyte Echo instrument. Recombinant DGKα (Carna Biosciences) in assay buffer (5 μL in 50 mM MOPS [3-(N-morpholino) propanesulfonic acid], pH 7.2; 0.0025% Triton X-100; 1 mM dithiothreitol; 5 mM MgCl2, 200 μM ATP) was added to the compound-containing plate and was incubated for 15 minutes at 25° C. A substrate solution (5 μL in 1.7 mM 1,2-dioleoyl-sn-glycerol [18:1 DAG], 13.5 mM 1-palmitoyl-2-oleoyl-sn-glycero-3-phospho-L-serine [16:0-18:1 PS](POPS), 2 μM CaCl2, 100 mM Octylglucoside (OG), 1 mM DTT) (obtained from Carna Biosciences) diluted in DGK ALPHA assay buffer was then added to start the reaction. Final concentrations were 1 nM DGKα, 100 μM ATP, 1 μM calcium chloride, 0.85 mM 1,2-dioleoyl-sn-glycerol (18:1 DAG), 6.75 mM 1-palmitoyl-2-oleoyl-sn-glycero-3-phospho-L-serine (16:0-18:1 PS) (POPS), 1 μM CaCl2), 50 mM Octylglucoside (OG) and 5 mM MgCl2. The reaction mixture was incubated at 25° C. for 1 hour. ADP-Glo Reagent (10 μL, 10 mM Mg added) provided by the kit was added to each well and incubated at 25° C. for 40 minutes. Then, 20 μL of Kinase Detection Reagent was added and incubated at 25° C. for 40 minutes. Luciferase activity of each well was measured via luminescence on an Envision plate reader (PerkinElmer).
Data were normalized based on maximum inhibition (50 μM of kinase inhibitor CU3) and no inhibition (DMSO) controls. Least squares curve fittings were performed using a four-parameter variable slope nonlinear regression model. IC50 was defined as the concentration of compound required to inhibit 50% of maximum activity. IC50 values from multiple experiments were averaged by geometric mean and the standard deviation was calculated.

[1] = test system: Jurkat NFκB-luciferase cells; experiment: Jurkat NFκB-Luciferase Assay; type: cell-based; conditions: Homo sapiens; Jurkat NFκB-luciferase cells activated with anti-CD3 antibody (OKT3), 2.5 hrs at 37° C.; geometric mean; read-out: DGK NFKb Luciferase EC50
Experimental: The activity of compounds was tested in a cell based NFκB reporter assay. Jurkat cells that are stably expressing a luciferase reporter construct under the transcriptional control of a NFκB reporter element were activated with an anti-CD3 antibody and luciferase levels were measured with a bioluminescence readout. An increase in the levels of bioluminescence was indicative of enhanced T-cell activation following DGKα inhibition by the compound.
Flat-bottom polystyrene plates (384-well, tissue culture treated) were coated overnight at 4° C. with 20 ul/well of a solution of phosphate-buffered saline supplemented with 5 ug/ml anti-CD3 antibody (clone OKT3, Biolegend). The day after, the excess antibody was washed out five times with 100 ul/well of assay medium (RPMI supplemented with 10% fetal bovine serum) using a Biotek EL406 instrument and leaving 20 ul of residual volume in each well. Jurkat NFκB-luciferase cells (Promega #) were harvested and diluted to 1 million cells/ml in assay medium. Sixty nanoliters of test compound dissolved in DMSO at various concentrations were dispensed into 384-well v-bottom polypropylene plates (Greiner) using a Labcyte Echo instrument. Thirty microliters of medium containing the Jurkat NFκB-luciferase cells were then dispensed using a Biotek MicroFlo instrument in each well of the compound-containing plate. The medium/cell/compound mixture was mixed with a Bravo instrument and 20 ul/well of the mixture was transferred to the anti-CD3-coated plate. The assay mixture was then incubated for 2.5 hrs at 37° C. followed by equilibration at 25° C. for 30 min. Forty microliters of One-Glo Ex (Promega) was then added to the assay mixture and luciferase activity was read on a Envision plate reader 7 minutes later.
Bioluminescence data were normalized based on maximum enhancement (1 micromolar of compound) and on basal activation (DMSO) controls. Least squares curve fittings were performed using a four-parameter variable slope nonlinear regression model. EC50 is defined as the concentration of compound required to produce 50% of maximum NFκB luciferase signal. EC50 values from multiple experiments were averaged by geometric mean and the standard deviation was calculated.

Chain of human DGKα (P23743 whole entry): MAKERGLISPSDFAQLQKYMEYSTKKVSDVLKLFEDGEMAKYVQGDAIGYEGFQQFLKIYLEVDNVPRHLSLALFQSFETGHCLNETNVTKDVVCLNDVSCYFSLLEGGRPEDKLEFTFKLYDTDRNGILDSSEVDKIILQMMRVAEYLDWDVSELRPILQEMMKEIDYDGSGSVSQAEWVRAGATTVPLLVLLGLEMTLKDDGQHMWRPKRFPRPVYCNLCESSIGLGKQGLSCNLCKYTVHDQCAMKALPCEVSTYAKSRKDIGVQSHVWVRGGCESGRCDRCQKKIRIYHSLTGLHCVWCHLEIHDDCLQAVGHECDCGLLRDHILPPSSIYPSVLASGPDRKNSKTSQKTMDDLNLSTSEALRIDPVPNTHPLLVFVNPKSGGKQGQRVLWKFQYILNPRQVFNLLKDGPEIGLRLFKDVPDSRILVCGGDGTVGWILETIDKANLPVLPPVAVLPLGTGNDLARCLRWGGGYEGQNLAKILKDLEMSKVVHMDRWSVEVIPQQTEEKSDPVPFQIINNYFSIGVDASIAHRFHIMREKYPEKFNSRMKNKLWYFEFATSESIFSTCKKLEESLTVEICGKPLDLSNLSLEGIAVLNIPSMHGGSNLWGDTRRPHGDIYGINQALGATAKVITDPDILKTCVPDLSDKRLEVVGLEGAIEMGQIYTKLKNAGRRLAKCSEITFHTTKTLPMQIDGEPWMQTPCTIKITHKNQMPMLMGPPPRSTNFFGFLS

Structure (SMILES)	IC50 (human DGKα) [nM]	EC50 [1] [nM]
Cc1nnc2nc(N(CC(F)F)c3cc(F)cc(C#CC4(C(F)(F)F)CC4)c3)c3cc(F)cnc3n12 [Example 106, N-(2,2-difluoroethyl)-3-fluoro-N-(3-fluoro-5-((1-(trifluoromethyl)cyclopropyl)ethynyl)phenyl)-9-methylpyrido[3,2-e][1,2,4]triazolo[4,3-a]pyrimidin-5-amine]	6.42	2.25
Cc1nnc2nc(N3CCCc4c(C#CC5(C)CC5)cccc43)c3cc(F)cnc3n12 [Example 107, 3-fluoro-9-methyl-5-(5-((1-methylcyclopropyl)ethynyl)-3,4-dihydroquinolin-1(2H)-yl)pyrido[3,2-e][1,2,4]triazolo[4,3-a]pyrimidine]	11.9	1.85
Cc1nnc2nc(N3CCOCc4c(C#Cc5cnn(C)c5)cccc43)c3ccc(C(F)(F)F)nc3n12 [Example 137, 6-((1-methyl-1H-pyrazol-4-yl)ethynyl)-1-(9-methyl-2-(trifluoromethyl)pyrido[3,2-e][1,2,4]triazolo[4,3-a]pyrimidin-5-yl)-1,2,3,5-tetrahydrobenzo[e][1,4]oxazepane]	8.38	5.67
COc1ccc2c(N(C)c3cccc(C#CC(C)(C)C)c3)nc3nncn3c2n1 [Example 128, N-(3-(3,3-dimethylbut-1-yn-1-yl)phenyl)-2-methoxy-N-methylpyrido[3,2-e][1,2,4]triazolo[4,3-a]pyrimidin-5-amine]	102	3.46
Fc1cc(C#CC2(C(F)(F)F)CC2)cc(N(CC(F)F)c2nc3nncn3c3cccnc23)c1 [Example 20, N-(2,2-difluoroethyl)-N-(3-fluoro-5-((1-(trifluoromethyl)cyclopropyl)ethynyl)phenyl)pyrido[2,3-e][1,2,4]triazolo[4,3-a]pyrimidin-5-amine]	71.8	2.9
Cc1nnc2nc(N3CCOCc4c(C#CC5(C(F)(F)F)CC5)cccc43)c3c(F)cncc3n12 [Example 78, 1-(6-fluoro-1-methylpyrido[4,3-e][1,2,4]triazolo[4,3-a]pyrimidin-5-yl)-6-((1-(trifluoromethyl)cyclopropyl)ethynyl)-1,2,3,5-tetrahydrobenzo[e][1,4]oxazepine]	4.34	1.95
Cc1nnc2nc(N3CCCc4c(C#CC5(C(F)(F)F)CC5)cccc43)c3ccc(C(F)(F)F)nc3n12 [Example 142, 9-methyl-2-(trifluoromethyl)-5-(5-((1-(trifluoromethyl)cyclopropyl)ethynyl)-3,4-dihydroquinolin-1(2H)-yl)pyrido[3,2-e][1,2,4]triazolo[4,3-a]pyrimidine]	712	0.464
CC1(C#Cc2cccc3c2CCCN3c2nc3nncn3c3ncc(F)cc23)CC1 [Example 109, 3-fluoro-5-(5-((1-methylcyclopropyl)ethynyl)-3,4-dihydroquinolin-1(2H)-yl)pyrido[3,2-e][1,2,4]triazolo[4,3-a]pyrimidine]	5.62	1.75
Cc1nnc2nc(N3CCCOc4c(C#CC5(C(F)(F)F)CC5)cccc43)c3c(F)cncc3n12 [Example 72, 5-(6-fluoro-1-methylpyrido[4,3-e][1,2,4]triazolo[4,3-a]pyrimidin-5-yl)-9-((1-(trifluoromethyl)cyclopropyl)ethynyl)-2,3,4,5-tetrahydrobenzo[b][1,4]oxazepine]	7.4	3.03
CCC(C)(O)C#Cc1cccc2c1CCCN2c1nc2nncn2c2ncc(F)cc12 (stereo not drawn) [Example 148, 1-(1-(3-fluoropyrido[3,2-e][1,2,4]triazolo[4,3-a]pyrimidin-5-yl)-1,2,3,4-tetrahydroquinolin-5-yl)-3-methylpent-1-yn-3-ol]	13.7	20.7
CC1(C#Cc2cccc3c2CCCN3c2nc3nncn3c3cccnc23)CC1 [Example 24, 8-[5-[2-(1-methylcyclopropyl)ethynyl]-3,4-dihydro-2H-quinolin-1-yl]-2,4,5,7,10-pentazatricyclo[7.4.0.02,6]trideca-1(13),3,5,7,9,11-hexaene]	17	2.77
CN(c1cccc(-c2cnc(C3CC3)cn2)c1)c1nc2nnnn2c2cc(Cl)ccc12 [Example 9, 8-chloro-N-(3-(5-cyclopropylpyrazin-2-yl)phenyl)-N-methyltetrazolo[1,5-a]quinazolin-5-amine]	44.3	1.75
Cc1nnc2nc(N(CC(F)F)c3cc(F)cc(C#CC4(C(F)(F)F)CC4)c3)c3ncccc3n12 [Example 18, N-(2,2-difluoroethyl)-N-(3-fluoro-5-((1-(trifluoromethyl)cyclopropyl)ethynyl)phenyl)-1-methylpyrido[2,3-e][1,2,4]triazolo[4,3-a]pyrimidin-5-amine]	64.4	4.73
CC(C)(O)C#Cc1cccc2c1CCCN2c1nc2nncn2c2cncc(F)c12 [Example 85, 4-[1-(10-fluoro-2,4,5,7,12-pentazatricyclo[7.4.0.02,6]trideca-1(13),3,5,7,9,11-hexaen-8-yl)-3,4-dihydro-2H-quinolin-5-yl]-2-methyl-but-3-yn-2-ol]	13.4	12.7
Cc1nnc2nc(N3CCCc4c(C#Cc5cnn(C)c5)cccc43)c3cc(F)cnc3n12 [Example 135]	4.03	3.1
Cc1nnc2nc(N(CC(F)F)c3cc(F)cc(C#CC(C)(C)O)c3)c3ncccc3n12 [Example 17, 4-(3-((2,2-difluoroethyl)(1-methylpyrido[2,3-e][1,2,4]triazolo[4,3-a]pyrimidin-5-yl)amino)-5-fluorophenyl)-2-methylbut-3-yn-2-ol]	77.7	44.3
Cc1nnc2nc(N3CCCc4c(C#CC5(C)CC5)cncc43)c3c(F)cncc3n12 [Example 38, 6-fluoro-1-methyl-5-(5-((1-methylcyclopropyl)ethynyl)-3,4-dihydro-1,7-naphthyridin-1(2H)-yl)pyrido[4,3-e][1,2,4]triazolo[4,3-a]pyrimidine]	17.9	6.07
CCC(O)C#Cc1cccc2c1CCCN2c1nc2nncn2c2ncc(F)cc12 (stereo not drawn) [Example 146, 1-(1-(3-fluoropyrido[3,2-e][1,2,4]triazolo[4,3-a]pyrimidin-5-yl)-1,2,3,4-tetrahydroquinolin-5-yl)pent-1-yn-3-ol]	7.78	18.1
CN(c1cc(F)cc(C#CC(C)(C)C(F)F)c1)c1nc2nnnn2c2ccc(F)cc12 [Example 12]	107	2.52
CC(C)(C#N)C#Cc1cccc2c1CCCN2c1nc2nncn2c2ncc(F)cc12 [Example 147, 4-(1-(3-fluoropyrido[3,2-e][1,2,4]triazolo[4,3-a]pyrimidin-5-yl)-1,2,3,4-tetrahydroquinolin-5-yl)-2,2-dimethylbut-3-ynenitrile]	4.38	4.24
CN(c1cc(F)cc(C#CC2(C(F)F)CC2)c1)c1nc2nnnn2c2ccc(F)cc12 [Example 14]	65.7	1.54
